For 19 compounds, LogP, chromatographic logP and efficacy results are on record in patent US20190023658A1, “SUBSTITUTED 2-DIFLUOROMETHYL-NICOTIN(THIO)CARBOXANILIDE DERIVATIVES AND THEIR USE AS FUNGICIDES” (Bayer CropScience Aktiengesellschaft, priority 2015, published 2019).

Each structure is given as a SMILES string.

Test system in one data set: not listed separately
The experiment in a line: Log P by HPLC on reversed phase columns (EEC directive 79/831 Annex V.A8). The note with it: [a] LC-UV, acidic range, 0.1% formic acid in water and acetonitrile as eluent. It is filed as physicochemical. On the procedure: Measurement of Log P values was performed according to EEC directive 79/831 Annex V.A8 by HPLC (High Performance Liquid Chromatography) on reversed phase columns with the following methods: [a] Log P value is determined by measurement of LC-UV, in an acidic range, with 0.1% formic acid in water and acetonitrile as eluent (linear gradient from 10% acetonitrile to 95% acetonitrile). [b] Log P value is determined by measurement of LC-UV, in a neutral range, with 0.001 molar ammonium acetate solution in water and acetonitrile as eluent (linear gradient from 10% acetonitrile to 95% acetonitrile). Calibration was done with straight-chain alkan2-ones (with 3 to 16 carbon atoms) with known Log P values (measurement of Log P values using retention times with linear interpolation between successive alkanones). Lambda-max-values were determined using UV-spectra from 200 nm to 400 nm and the peak values of the chromatographic signals.
Regarding `O=C(Nc1ccccc1Oc1cccc(Cl)c1)c1cccnc1C(F)F` [Example I-06], the LogP was 3.29^[a].
`O=C(Nc1ccc(F)cc1-c1ccc(Cl)c(Cl)c1)c1c(C(F)F)ccnc1C(F)F` [Example I-31]: the LogP was 3.96^[a].
On the same count and under the same terms, the result for `CCCCOc1c(F)cc(-c2ccccc2NC(=O)c2cccnc2C(F)F)cc1F` [Example I-59] reads 3.99^[a]; that for `CCON=Cc1c(F)cc(-c2cccc(F)c2NC(=O)c2cccnc2C(F)F)cc1F` [Example I-60], 3.35^[a]; that for `O=C(Nc1ccccc1-c1ccccc1)c1cccnc1C(F)F` [Example I-61], 2.55^[a].
Consider `CC(C)(C)C#Cc1ccc(-c2ccccc2NC(=O)c2cccnc2C(F)F)cc1` [Example I-62], for which the LogP was 4.29^[a].
The same measure, in the same setting: in the case of `O=C(Nc1ccccc1-c1ccc(C(F)(F)F)c(Cl)c1)c1cccnc1C(F)F` [Example I-63] it was 3.50^[a].
Take `CCON=Cc1c(F)cc(-c2cc(F)ccc2NC(=O)c2cccnc2C(F)F)cc1F` [Example I-65]: the LogP is 3.55^[a].
On the same count and under the same terms, the result for `O=C(Nc1ccccc1-c1ccc(F)c(Cl)c1)c1cccnc1C(F)F` [Example I-66] reads 3.04^[a]; that for `CCON=Cc1ccc(-c2ccccc2NC(=S)c2cccnc2C(F)F)cc1` [Example I-67], 3.70^[a]; that for `COC(=N)c1c(F)cc(-c2cc(F)ccc2NC(=S)c2cccnc2C(F)F)cc1F` [Example I-69], 3.73^[a].
Still for that read-out and setting: in the case of `CCON=Cc1c(F)cc(-c2cc(F)ccc2NC(=S)c2cccnc2C(F)F)cc1F` [Example I-70] it was 4.11^[a].
Still for that read-out and setting: in the case of `N#Cc1c(F)cc(-c2ccccc2NC(=S)c2cccnc2C(F)F)cc1F` [Example I-71] it was 3.19^[a]; in that of `CCON=Cc1c(F)cc(-c2cccc(F)c2NC(=S)c2cccnc2C(F)F)cc1F` [Example I-72], 3.99^[a].
As to `Fc1ccc(-c2ccccc2NC(=S)c2cccnc2C(F)F)cc1F` [Example I-73], the LogP is 3.27^[a].
Take `COC(=N)c1c(F)cc(-c2cccc(F)c2NC(=S)c2cccnc2C(F)F)cc1F` [Example I-74]: the LogP is 3.60^[a].
For the compound `CCON=Cc1c(F)cc(-c2ccccc2NC(=S)c2cccnc2C(F)F)cc1F` [Example I-75], the LogP is 3.92^[a].
In the case of `CON=Cc1c(F)cc(-c2ccccc2NC(=S)c2cccnc2C(F)F)cc1F` [Example I-76], the LogP was 3.55^[a].

Still in this data set, the particulars now being: reversed phase HPLC column; [a] LC-UV, acidic range, 0.1% formic acid in water and acetonitrile as eluent.
In the case of `FC(F)c1ncccc1C(=S)Nc1ccccc1-c1ccc(C(F)(F)F)c(Cl)c1` [Example I-68, N-[3′-chloro-4′-(trifluoromethyl)biphenyl-2-yl]-2-(difluoromethyl)pyridine-3-carbothioamide], the chromatographic logP – broadly, lipophilicity estimated from chromatographic retention – worked out at 3.94.

In a further data set the test system is Puccinia recondita. The data set is described as follows: In vivo preventive test on Puccinia recondita (brown rust on wheat). The note with it: 10 ppm of active ingredient; wheat plants, preventive spray, evaluated 11 days after inoculation. On the procedure: (§1) Example: In Vivo Preventive Test on Puccinia recondita (Brown Rust on Wheat) [table] The active ingredients are made soluble and homogenized in a mixture of Dimethyl sulfoxide/Acetone/Tween® 80 and then diluted in water to the desired concentration. The young plants of wheat are treated by spraying the active ingredient prepared as described above. Control plants are treated only with an aqueous solution of Acetone/Dimethyl sulfoxide/Tween® 80. After 24 hours, the plants are contaminated by spraying the leaves with an aqueous suspension of Puccinia recondita spores. The contaminated wheat plants are incubated for 24 hours at 20° C. and at 100% relative humidity and then for 10 days at 20° C. and at 70-80% relative humidity. The test is evaluated 11 days after the inoculation. 0% means an efficacy which corresponds to that of the control plants while an efficacy of 100% means that no disease is observed.
For the compound `O=C(Nc1ccccc1Oc1cccc(Cl)c1)c1cccnc1C(F)F` [Example I-06], the efficacy entry is listed as “at least 70%”.

The test system of the next data set is Uromyces appendiculatus. The experiment in a line: In vivo preventive test on Uromyces appendiculatus (bean rust). The note with it: 500 ppm of active ingredient; bean plants, preventive spray, evaluated 11 days after inoculation. On the procedure: as §1, with “Uromyces appendiculatus (Bean Rust)” for “Puccinia recondita (Brown Rust on Wheat)”, “bean” for “wheat”, “Uromyces appendiculatus” for “Puccinia recondita”
Turning to `O=C(Nc1ccc(F)cc1-c1ccc(Cl)c(Cl)c1)c1c(C(F)F)ccnc1C(F)F` [Example I-31], the efficacy result is given as “at least 70%”.
